Reference: patent publication US20250230155A1 (Vanderbilt University, priority 2021, published 2025)

Target: T1, human mAChR M4 (Homo sapiens, UniProt P08173)
T1 construct: expressed in transfected cells
T1 sequence (P08173 1-479): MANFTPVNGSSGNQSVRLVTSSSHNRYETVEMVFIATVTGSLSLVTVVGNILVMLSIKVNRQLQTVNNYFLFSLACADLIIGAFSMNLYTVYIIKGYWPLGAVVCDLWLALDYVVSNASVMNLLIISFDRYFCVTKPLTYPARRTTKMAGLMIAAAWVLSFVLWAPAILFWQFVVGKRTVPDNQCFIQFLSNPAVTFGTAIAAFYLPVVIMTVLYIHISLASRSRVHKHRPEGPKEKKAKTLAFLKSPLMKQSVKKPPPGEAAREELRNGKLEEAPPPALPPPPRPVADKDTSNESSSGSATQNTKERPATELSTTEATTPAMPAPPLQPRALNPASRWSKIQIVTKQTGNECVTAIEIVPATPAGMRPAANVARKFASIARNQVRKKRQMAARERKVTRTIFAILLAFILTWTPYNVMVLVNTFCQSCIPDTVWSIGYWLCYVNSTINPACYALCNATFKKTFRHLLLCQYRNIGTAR
Assay: mAChR M4 cell-based functional assay (calcium mobilization, CHO-K1 hM4-Gqi5 cells)
Settings: for Emax at 30 µM: CHO-K1, % ACh maximum at 30 μM, human M4; for EC50: positive allosteric modulator activity, increase in the EC20 acetylcholine response, CHO-K1 hM4-Gqi5 cells, read-out: Human M4 EC50
In short: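 Fluorescent calcium read-out (Fluo-4 AM, FDSS, 1 Hz) in hM4-Gqi5 CHO-K1 cells, 11-point 1:3 compound series. Agonism scored on compound addition, PAM activity as increase of the 144 s EC20 acetylcholine response, antagonism as decrease of the 230 s EC80 response; four-parameter logistic fits give EC50 and Emax.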

Row | SMILES | Emax at 30 µM [%] | EC50 [µM] | Emax (CHO-K1) [%]
1 | Cc1cc(C(=O)NCc2ccncc2)nnc1N1CCc2ncc(N3CCCn4nccc43)cc2C1 [Example 490, 6-(3-(6,7-dihydropyrazolo[1,5-a]pyrimidin-4(5H)-yl)-7,8-dihydro-1,6-naphthyridin-6(5H)-yl)-5-methyl-N-(pyridin-4-ylmethyl)pyridazine-3-carboxamide] | 100 | 0.016 | 
2 | Cc1cc(C(=O)NCc2nccs2)cnc1N1CCc2ncc(-c3cnn(C)c3)cc2C1 [compound 173, 5-methyl-6-[3-(1-methylpyrazol-4-yl)-7,8-dihydro-5H-1,6-naphthyridin-6-yl]-N-(thiazol-2-ylmethyl)pyridine-3-carboxamide] | 95 | 0.0773 | 
3 | Cc1cc2n(n1)CCCN2c1cnc2c(c1)CN(c1nnc(C#N)cc1C)CC2 [Example 382, 5-methyl-6-(3-(2-methyl-6,7-dihydropyrazolo[1,5-a]pyrimidin-4(5H)-yl)-7,8-dihydro-1,6-naphthyridin-6(5H)-yl)pyridazine-3-carbonitrile] | 98 | 0.074 | 
4 | Cc1cc(C(=O)NCc2ccc3ncnn3c2)cnc1N1CCc2ncc(-c3cn(C)nc3C)cc2C1 [Example 479, N-([1,2,4]triazolo[1,5-a]pyridin-6-ylmethyl)-6-(3-(1,3-dimethyl-1/- pyrazol-4-yl)-7,8-dihydro-1,6-naphthyridin-6(5H)-yl)-5-methylnicotinamide] | 57 | 0.886 | 
5 | Cc1cc(C(=O)NCc2cnc(Cl)s2)cnc1N1CCc2ncccc2C1 [compound 134, N-[(2-chlorothiazol-5-yl)methyl]-6-(7,8-dihydro-5H-1,6-naphthyridin-6-yl)-5-methyl-pyridine-3-carboxamide] | 69 | 1.64 | 
6 | Cc1cc(C#N)nnc1N1CCc2ncc(-c3ccnn3C)cc2C1 [Example 394, 5-methyl-6-(3-(1-methyl-1H-pyrazol-5-yl)-7,8-dihydro-1,6-naphthyridin-6(5H)-yl)pyridazine-3-carbonitrile] | 86 | 1.08 | 
7 | Cc1nc(Cl)c(C)c(N2CCc3ncc(C(F)F)cc3C2)n1 [compound 215, 6-(6-chloro-2,5-dimethylpyrimidin-4-yl)-3-(difluoromethyl)-5,6,7,8-tetrahydro-1,6-naphthyridine] |  | 0.137 | 93
8 | [2H]C1([2H])Cc2ncc(Nc3cc(C)ncc3F)cc2C([2H])([2H])N1c1ncc(C#N)cc1C [Example 601, 6-(3-((5-fluoro-2-methylpyridin-4-yl)amino)-7,8-dihydro-1,6-naphthyridin-6(5H)-yl-5,5,7,7-d4)-5-methylnicotinonitrile] | 95 | 0.007 | 
9 | Cc1cc(C(=O)NC2(c3ccccn3)CC2)nnc1N1CCc2ncc(N3CCCn4nccc43)cc2C1 [Example 543, 6-(3-(6,7-dihydropyrazolo[1,5-a]pyrimidin-4(5H)-yl)-7,8-dihydro-1,6-naphthyridin-6(5H)-yl)-5-methyl-N-(1-(pyridin-2-yl)cyclopropyl)pyridazine-3-carboxamide] | 114 | 0.047 | 
10 | Cc1nc(Cl)c(C)c(N2CCc3ncc(-c4cnc(C)s4)cc3C2)n1 [compound 199, 5-[6-(6-chloro-2,5-dimethyl-pyrimidin-4-yl)-7,8-dihydro-5H-1,6-naphthyridin-3-yl]-2-methyl-thiazole] | 81 | 0.14 | 
11 | Cc1nn(C)cc1-c1cnc2c(c1)CN(c1nc(Cl)nc3c1COC3)CC2 [compound 285, 2-chloro-4-(3-(1,3-dimethyl-1H-pyrazol-4-yl)-7,8-dihydro-1,6-naphthyridin-6(5H)-yl)-5,7-dihydrofuro[3,4-d]pyrimidine] | 30 | 1.22 | 
12 | Cc1c(Cl)nc(C2CC2)nc1N1CCc2ncc(Nc3cccc(F)c3F)cc2C1 [compound 91, 6-(6-chloro-2-cyclopropyl-5-methyl-pyrimidin-4-yl)-N-(2,3-difluorophenyl)-7,8-dihydro-5H-1,6-naphthyridin-3-amine] | 67 | 5.57 | 
13 | Cc1cnc2c(c1)CN(c1nnc(C(=O)NCc3ccncc3C)c(C)c1C)CC2 [Example 472, 4,5-dimethyl-6-(3-methyl-7,8-dihydro-1,6-naphthyridin-6(5H)-yl)-N-((3-methylpyridin-4-yl)methyl)pyridazine-3-carboxamide] | 99 | 0.071 | 

Continued by falling EC50, values first:

Row | Emax at 30 µM [%] | EC50 [µM] | SMILES | Emax (CHO-K1) [%]
14 | 62 | 4.31 | Cc1cc(C#N)cnc1N1CCc2ncc(N3CCO[C@@H](c4ccccc4)C3)cc2C1 [Example 378, (S)-5-methyl-6-(3-(2-phenylmorpholino)-7,8-dihydro-1,6-naphthyridin-6(5H)-yl)nicotinonitrile] | 
15 | 105 | 3.53 | Cc1cc(C(=O)N2CCCC2)nnc1N1CCc2ncc(C(F)(F)F)cc2C1 [Example 502, (5-methyl-6-(3-(trifluoromethyl)-7,8-dihydro-1,6-naphthyridin-6(5H)-yl)pyridazin-3-yl)(pyrrolidin-1-yl)methanone] | 
16 | 91 | 3.38 | Cc1c(C(=O)NCc2ccccn2)nnc(N2CCc3ncccc3C2)c1C [compound 137, 6-(7,8-dihydro-5H-1,6-naphthyridin-6-yl)-4,5-dimethyl-N-(2-pyridylmethyl)pyridazine-3-carboxamide] | 
17 | 64 | 2.68 | Cc1cc(C(=O)NCc2cn3ccccc3n2)cnc1N1CCc2ncccc2C1 [compound 120] | 
18 | 90 | 1.38 | Cc1c(C#N)nnc(N2CCc3ncc(N4CCO[C@H](c5ccccc5)C4)cc3C2)c1C [Example 376, (R)-4,5-dimethyl-6-(3-(2-phenylmorpholino)-7,8-dihydro-1,6-naphthyridin-6(5H)-yl)pyridazine-3-carbonitrile] | 
19 | 89 | 1.08 | Cc1ccc(Oc2cnc3c(c2)CN(c2nc(C)nc(C)c2C)CC3)c(F)c1 [compound 269, 3-(2-fluoro-4-methylphenoxy)-6-(2,5,6-trimethylpyrimidin-4-yl)-5,6,7,8-tetrahydro-1,6-naphthyridine] | 
20 | 50 | 0.94 | Cc1c(C#N)nnc(N2CCc3ncc(-c4ccnc(Cl)c4F)cc3C2)c1C [compound 73, 6-[3-(2-chloro-3-fluoro-4-pyridyl)-7,8-dihydro-5H-1,6-naphthyridin-6-yl]-4,5-dimethyl-pyridazine-3-carbonitrile] | 
21 | 80 | 0.483 | Cc1ccccc1Nc1cnc2c(c1)CN(c1nnc(C#N)c(C)c1C)CC2 [compound 42, 4,5-dimethyl-6-[3-(2-methylanilino)-7,8-dihydro-5H-1,6-naphthyridin-6-yl]pyridazine-3-carbonitrile] | 
22 | 96 | 0.424 | Cc1cc(C(=O)Nc2ccncc2)cnc1N1CCc2ncc(C(F)(F)F)cc2C1 [Example 442, 5-methyl-N-(pyridin-4-yl)-6-(3-(trifluoromethyl)-7,8-dihydro-1,6-naphthyridin-6(5H)-yl)nicotinamide] | 
23 | 90 | 0.328 | Cc1nc(Cl)c(C)c(N2CCc3ncc(Oc4ccccc4F)cc3C2)n1 [compound 204, 6-(6-chloro-2,5-dimethyl-pyrimidin-4-yl)-3-(2-fluorophenoxy)-7,8-dihydro-5H-1,6-naphthyridine] | 
24 | 72 | 0.3 | Cc1c(C#N)nnc(N2CCc3ncc(Nc4ncccc4F)cc3C2)c1C [compound 80, 6-[3-[(3-fluoro-2-pyridyl)amino]-7,8-dihydro-5H-1,6-naphthyridin-6-yl]-4,5-dimethyl-pyridazine-3-carbonitrile] | 
25 | 71 | 0.27 | Cc1cc(C#N)cnc1N1CCc2ncc(-c3cc(F)ncc3F)cc2C1 [Example 337, 6-(3-(2,5-difluoropyridin-4-yl)-7,8-dihydro-1,6-naphthyridin-6(5H)-yl)-5-methylnicotinonitrile] | 
26 | 91 | 0.217 | FC(F)(F)c1cnc2c(c1)CN(c1nc(Cl)nc3c1CCC3)CC2 [compound 259, 6-(2-chloro-6,7-dihydro-5H-cyclopenta[d]pyrimidin-4-yl)-3-(trifluoromethyl)-5,6,7,8-tetrahydro-1,6-naphthyridine] | 
27 | 111 | 0.05 | [2H]C([2H])([2H])c1cnc2c(c1)CN(c1nnc(C(=O)NCc3ccncc3)cc1C)CC2 [Example 579, 5-methyl-6-(3-(methyl-d3)-7,8-dihydro-1,6-naphthyridin-6(5H)-yl)-N-(pyridin-4-ylmethyl)pyridazine-3-carboxamide] | 
28 | 76 | 0.022 | COC1(C)CN(C(=O)c2cc(C)c(N3CCc4ncc(N5CCCn6nccc65)cc4C3)nn2)C1 [Example 552, (6-(3-(6,7-dihydropyrazolo[1,5-a]pyrimidin-4(5H)-yl)-7,8-dihydro-1,6-naphthyridin-6(5H)-yl)-5-methylpyridazin-3-yl)(3-methoxy-3-methylazetidin-1-yl)methanone] | 
29 | 110 | 0.017 | Cc1cc(C(=O)NCc2cncs2)nnc1N1CCc2ncc(C(F)(F)F)cc2C1 [Example 492, 5-methyl-N-(thiazol-5-ylmethyl)-6-(3-(trifluoromethyl)-7,8-dihydro-1,6-naphthyridin-6(5H)-yl)pyridazine-3-carboxamide] | 
